Source: patent publication US20210138025A1, “CATIONIC PEPTIDES WITH IMMUNOMODULATORY AND/OR ANTI-BIOFILM ACTIVITIES” (priority 2018, published 2021)
Where two headings read alike, the source gives them in different places. No end group written: not given here.

Tests used:
S. aureus (MRSA SAP0017) = assay type: cell-based, Staphylococcus aureus; conditions: SPOT synthesized control peptides, determined as in Table 5; Table 7
Procedure, shortened: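 Static biofilm assay: 1/100 dilutions of overnight cultures grown with peptide at varying concentrations, added at time zero, in BM2 biofilm medium or tryptic soy broth plus 1% glucose in polypropylene plates. After 22-46 h, adherent biofilm stained with crystal violet and absorbance read at 595 nm.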

MCP-1 = MCP-1 chemokine induction in human PBMCs, ELISA (Tables 6, 7; FIGS. 6-9, 13); assay type: cell-based; conditions: SPOT synthesized control peptides, determined as in Table 6; Table 7
Method: Venous blood (20 ml) from healthy volunteers was collected in Vacutainer® collection tubes containing sodium heparin as an anticoagulant (Becton Dickinson, Mississauga, ON) in accordance with UBC ethical approval and guidelines. Blood was diluted 1:1 with complete RPMI 1640 medium and separated by centrifugation over a Ficoll-Paque® Plus (Amersham Biosciences, Piscataway, N.J., USA) density gradient. White blood cells were isolated from the buffy coat, washed twice in PBS and then resuspended in RPMI 1640 complete medium (containing 10% fetal bovine serum), and the number of peripheral blood mononuclear cells (PBMC) was determined by Trypan blue exclusion. PBMCs (5×10^5) were seeded into 12-well tissue culture dishes (Falcon; Becton Dickinson) at 0.75-1×10^6 cells/ml at 37° C. in 5% CO2. The above conditions were chosen to mimic conditions for circulating blood monocytes entering tissues at the site of infection via extravasation.
Following incubation of the cells under various treatment regimens, the tissue culture supernatants were centrifuged at 1000×g for 5 min, then at 10,000×g for 2 min to obtain cell-free samples. Supernatants were aliquoted and then stored at −20° C. prior to assay for various chemokines by capture ELISA (eBioscience and BioSource International Inc., CA, USA respectively)

IL-1β = assay: Suppression of LPS-induced IL-1β production in human PBMCs, ELISA (Tables 6, 7; FIGS. 6-9, 13); conditions: SPOT synthesized control peptides, determined as in Table 6; Table 7
E. coli (Ec) [1] = assay type: cell-based
S. aureus (Sau) [2] = assay type: cell-based
E. coli (Ec) [3] = assay type: cell-based; remark: listed apart in the source
Method: (§1) The same strains as in Table 18 were assessed for Minimal Biofilm Inhibitory Concentrations (MBIC) (Table 19). Italics=excellent activity (less than or equal to 4 μg/ml). ND=Not determined. Peptides 3013, 3015 and 3016 inhibited biofilm growth in the largest number of bacterial strains (5, 5 and 6 out of 13 strains, respectively).
(§2) In addition, several peptides expressed preferential activity vs. biofilms (MBIC) cf. planktonic cells (MIC) (Table 20).

S. aureus (Sau) [4] = assay type: cell-based; remark: listed apart in the source
Method: as §1, §2

[5] = test system: planktonic methicillin resistant S. aureus; assay: microbe, parasite or virus in culture; assay type: cell-based, Staphylococcus aureus
PBMCs = assay: Cytotoxicity towards PBMCs, lactate dehydrogenase (LDH) release assay (Tables 6, 7); conditions: SPOT synthesized peptide ~25 μM, PBMCs from 3 human donors; Table 6
[6] = planktonic methicillin resistant
[7] = planktonic methicillin resistant S. aureus, broth microdilution in Mueller Hinton Broth (MHB), mean of three biological replicates
[8] = planktonic methicillin resistant S. aureus, broth microdilution in Tryptic Soy Broth (TSB) supplemented with 1% glucose, mean of three biological replicates

| Substance | % Biofilm Inhibition (S. aureus (MRSA SAP0017)) [%] | MCPI production in PBMC (MCP-1) [pg/mL] | Fold Change in IL1-β relative to untreated LPS-stimulated cells (IL-1β) | also measured |
| --- | --- | --- | --- | --- |
| C33 (KIWLLKLRQRQK) [Peptide C33] | 102 | 1685 | 1.23 |  |
| C34 (WRIKKQWIQIIV) [Peptide C34] | 99 | 217 | 1.13 |  |
| C35 (IILKRVQVQKIK) [Peptide C35] | 101 | 481 | 1.1 |  |
| C36 (KRIKKLLKVVLK) [Peptide C36] | 100 | 719 | 0.92 |  |
| C37 (QQKVIRLLWKAK) [Peptide C37] | 102 | 216 | 0.83 |  |
| C38 (RIWRRAWKARWK) [Peptide C38] | 102 | 251 | 1.06 |  |
| C39 (KIKLIQKQLRIK) [Peptide C39] | 98 | 286 | 0.84 |  |
| C40 (ALLAGRKRAVAV) [Peptide C40] | 102 | 39 | 0.89 |  |
| C41 (KAVAGARQRWAL) [Peptide C41] | 101 | 353 | 0.82 |  |
| C42 (AIGAARAWRQWA) [Peptide C42] | 102 | 114 | 0.85 |  |
| C43 (AVIVRAAKGGAR) [Peptide C43] | 103 | 100 | 0.99 |  |
| C44 (LLKLKQKGIVIA) [Peptide C44] | 102 | 365 | 0.94 |  |
| C45 (QWLVKWVIIKVV) [Peptide C45] | 102 | 499 | 1 |  |
| C46 (IQIWIIRVIWRW) [Peptide C46] | 102 | 697 | 0.91 |  |
| C47 (KVIQWIIVRRVL) [Peptide C47] | 102 | 1193 | 0.76 |  |
| C48 (KVIKIVLVRVVK) [Peptide C48] | 99 | 1752 | 1.07 |  |
| C49 (WLKRIVKVVVLK) [Peptide C49] | 103 | 1557 | 0.8 |  |

| Substance | % Biofilm Inhibition (S. aureus (MRSA SAP0017)) [%] | MCPI production in PBMC (MCP-1) [pg/mL] | Fold Change in IL1-β relative to untreated LPS-stimulated cells (IL-1β) | also measured |
| --- | --- | --- | --- | --- |
| C50 (IKIVRRAKIIIW) [Peptide C50] | 94 | 222 | 0.91 |  |
| C51 (VKWKGKVIVVQL) [Peptide C51] | 79 | 862 | 0.81 |  |
| C52 (KIVQKKLRLVVI) [Peptide C52] | 99 | 291 | 0.76 |  |
| C53 (GKLKIKVKLGIA) [Peptide C53] | 98 | 113 | 0.94 |  |
| C54 (QVVVKKKAIQVV) [Peptide C54] | 101 | 651 | 0.95 |  |
| C55 (VAKVKKARWRLR) [Peptide C55] | 102 | 208 | 0.92 |  |
| C56 (IIKWIVVRQIRK) [Peptide C56] | 102 | 57 | 0.85 |  |
| C57 (KGKIRKIVLIRR) [Peptide C57] | 102 | 157 | 0.9 |  |
| IAWQLLWGWRVR-NH2 [Peptide 3022, IAWQLLWGWRVR] |  |  |  | MIC E. coli (E. coli (Ec) [1]; Ec): 8 µg/mL; MIC S. aureus (S. aureus (Sau) [2]; Sau): 8 µg/mL; MBIC E. coli (E. coli (Ec) [3]; Ec): 4 µg/mL; MBIC S. aureus (S. aureus (Sau) [4]; Sau): 4 µg/mL; MIC (μM) MHB [5, 6]: 4 µM; MIC (μM) TSB with 1% Glucose [5, 6]: 8 µM; % Toxicity (LDH Release) (PBMCs): −4.8% |
| IKIIWKALGQVI-NH2 [Peptide 3024, IKIIWKALGQVI] |  |  |  | MIC E. coli (E. coli (Ec) [1]; Ec): 4 µg/mL; MIC S. aureus (S. aureus (Sau) [2]; Sau): 16 µg/mL; MBIC E. coli (E. coli (Ec) [3]; Ec): 2 µg/mL; MBIC S. aureus (S. aureus (Sau) [4]; Sau): 8 µg/mL; MIC (μM) MHB [5, 7]: 16 µM; MIC (μM) TSB with 1% Glucose [5, 8]: 32 µM; % Toxicity (LDH Release) (PBMCs): −1.7% |
| ILVRWIRWRIQW-NH2 [Peptide 3002, ILVRWIRWRIQW] |  |  |  | MIC E. coli (E. coli (Ec) [1]; Ec): 8 µg/mL; MIC S. aureus (S. aureus (Sau) [2]; Sau): 8 µg/mL; MBIC E. coli (E. coli (Ec) [3]; Ec): 4 µg/mL; MBIC S. aureus (S. aureus (Sau) [4]; Sau): 4 µg/mL; MIC (μM) MHB [5, 6]: 2 µM; MIC (μM) TSB with 1% Glucose [5, 6]: 4 µM; % Toxicity (LDH Release) (PBMCs): −3.7% |
| IQRWWKVWLKVI-NH2 [Peptide 3004, IQRWWKVWLKVI] |  |  |  | MIC E. coli (E. coli (Ec) [1]; Ec): 4 µg/mL; MIC S. aureus (S. aureus (Sau) [2]; Sau): 8 µg/mL; MBIC E. coli (E. coli (Ec) [3]; Ec): 2 µg/mL; MBIC S. aureus (S. aureus (Sau) [4]; Sau): 1 µg/mL; MIC (μM) MHB [5, 6]: 4 µM; MIC (μM) TSB with 1% Glucose [5, 6]: 16 µM; % Toxicity (LDH Release) (PBMCs): 5.1% |
| IWLRLKVVLKRK-NH2 [Peptide 3006, IWLRLKVVLKRK] |  |  |  | MIC E. coli (E. coli (Ec) [1]; planktonic cells, Table 20): 2 µg/mL; MIC S. aureus (S. aureus (Sau) [2]; planktonic cells, Table 20): 8 µg/mL; MBIC E. coli (E. coli (Ec) [3]; biofilms, Table 20): 1 µg/mL; MBIC S. aureus (S. aureus (Sau) [4]; biofilms, Table 20): 1 µg/mL; MIC (μM) MHB [5, 7]: 4 µM; MIC (μM) TSB with 1% Glucose [5, 8]: 32 µM; % Toxicity (LDH Release) (PBMCs): 2.4% |
| KIQRRAWKQWRK-NH2 [Peptide 3014, KIQRRAWKQWRK] |  |  |  | MIC E. coli (E. coli (Ec) [1]; Ec): 64 µg/mL; MIC S. aureus (S. aureus (Sau) [2]; Sau): >64 µg/mL; MBIC E. coli (E. coli (Ec) [3]; Ec): 64 µg/mL; MBIC S. aureus (S. aureus (Sau) [4]; Sau): 64 µg/mL; MIC (μM) MHB [5, 6]: >64 µM; MIC (μM) TSB with 1% Glucose [5, 6]: >64 µM; % Toxicity (LDH Release) (PBMCs): −3.7% |
| KKWQLLIKWKLR-NH2 [Peptide 3008, KKWQLLIKWKLR] |  |  |  | MIC E. coli (E. coli (Ec) [1]; Ec): 8 µg/mL; MIC S. aureus (S. aureus (Sau) [2]; Sau): 8 µg/mL; MBIC E. coli (E. coli (Ec) [3]; Ec): 4 µg/mL; MBIC S. aureus (S. aureus (Sau) [4]; Sau): 2 µg/mL; MIC (μM) MHB [5, 6]: 2 µM; MIC (μM) TSB with 1% Glucose [5, 6]: 4 µM; % Toxicity (LDH Release) (PBMCs): 18.8% |
| LIVIQLLKKWWK-NH2 [Peptide 3020, LIVIQLLKKWWK] |  |  |  | MIC E. coli (E. coli (Ec) [1]; Ec): 2 µg/mL; MIC S. aureus (S. aureus (Sau) [2]; Sau): 16 µg/mL; MBIC E. coli (E. coli (Ec) [3]; Ec): 1 µg/mL; MBIC S. aureus (S. aureus (Sau) [4]; Sau): <1 µg/mL; MIC (μM) MHB [5, 6]: 8 µM; MIC (μM) TSB with 1% Glucose [5, 6]: >64 µM; % Toxicity (LDH Release) (PBMCs): 10.2% |
| RRIIKILLWKLR-NH2 [Peptide 3021, RRIIKILLWKLR] |  |  |  | MIC E. coli (E. coli (Ec) [1]; Ec): <1 µg/mL; MIC S. aureus (S. aureus (Sau) [2]; Sau): 8 µg/mL; MBIC E. coli (E. coli (Ec) [3]; Ec): 2 µg/mL; MBIC S. aureus (S. aureus (Sau) [4]; Sau): 1 µg/mL; MIC (μM) MHB [5, 6]: 4 µM; MIC (μM) TSB with 1% Glucose [5, 6]: 32 µM; % Toxicity (LDH Release) (PBMCs): 13.1% |
